Measured values from patent US12570638B2, “Fused imidazole derivatives as AHR antagonists” (Sail Biomedicines, Inc., priority 2020, dated 2026).

Columns and labels:
[1] = Caco-2 Permeability Assay; format: in vitro ADME; conditions: human; for Papp A→B at 2 h, 1 μM: Caco-2, pH 7.4, apical to basolateral, read-out: Caco2 Papp (AB); for Papp B→A at 2 h, 1 μM: Caco-2, pH 7.4, basolateral to apical, read-out: Caco2 Papp (BA)
Description: Preparation of Caco-2 Cells: 50 μL and 25 mL of cell culture medium were added to each well of the Transwell insert and reservoir, respectively. The HTS transwell plates were incubated at 37° C., 5% CO2 for 1 hour before cell seeding. Caco-2 cells were diluted to 6.86×10^5 cells/mL with culture medium and 50 μL of cell suspension were dispensed into the filter well of the 96-well HTS Transwell plate. Cells were cultivated for 14-18 days in a cell culture incubator at 37° C., 5% CO2, 95% relative humidity. Cell culture medium was replaced every other day, beginning no later than 24 hours after initial plating.
Assessment of Cell Monolayer Integrity: Medium was removed from the reservoir and each Transwell insert and replaced with prewarmed fresh culture medium. Transepithelial electrical resistance (TEER) across the monolayer was measured using Millicell Epithelial Volt-Ohm measuring system (Millipore, USA). The Plate was returned to the incubator once the measurement was done. The TEER value was calculated according to the following equation: TEER measurement (ohms)×Area of membrane (cm^2)=TEER value (ohm·cm^2)
TEER value should be greater than 230 ohm·cm^2, which indicates the well-qualified Caco-2 monolayer.
Preparation of Solutions: 2 mM stock solutions in DMSO of control compounds were prepared and diluted with HBSS (10 mM HEPES, pH 7.4) to get 10 μM working solution. 0.2 mM stock solutions of test compounds in DMSO were prepared and diluted with HBSS (10 mM HEPES, pH 7.4 with 0.5% BSA) to get 1 μM working solution. Metoprolol, erythromycin and cimetidine were used as control compounds.
Performing the Drug Transport Assay: The Caco-2 plate was removed from the incubator. The monolayer was washed twice with pre-warmed HBSS (10 mM HEPES, pH 7.4). The plate was incubated at 37° C. for 30 minutes. To determine the rate of drug transport in the apical to basolateral direction, 125 μL of the working solution was added to the Transwell insert (apical compartment). A 50 μL sample was transferred immediately from the apical compartment to 200 μL of acetonitrile containing IS (100 nM alprazolam, 200 nM Caffeine and 100 nM tolbutamide) in a new 96-well plate as the initial donor sample (A-B) and it was vortexed at 1000 rpm for 10 minutes. The wells in the receiver plate (basolateral compartment) were filled with 235 μL of transport buffer. To determine the rate of drug transport in the basolateral to apical direction, 285 μL of the working solution were added to the receiver plate wells (basolateral compartment). […]
Data analysis: All calculations were carried out using Microsoft Excel. Peak areas were determined from extracted ion chromatograms. […]

[2] = Liver Microsome Stability Assay, human; format: in vitro ADME; conditions: human liver microsomes, with NADPH, 1 μM compound, read-out: Human liver microsome clearance
Description: The master solution was prepared according to Table 6.
Two separate experiments were performed as follows.
With Cofactors (NADPH): 25 μL of 10 mM NADPH was added to the incubations. The final concentrations of microsomes and NADPH were 0.5 mg/mL and 1 mM, respectively. The final concentration of microsomes was 0.5 mg/mL. The mixture was pre-warmed at 37° C. for 10 minutes. The reaction was started with the addition of 2.5 μL of 100 μM control compound or test compound solutions. Verapamil was used as positive control in this study. The final concentration of test compound or control compound was 1 μM. The incubation solution was incubated in water batch at 37° C. Aliquots of 25 μL were taken from the reaction solution at 0.5, 5, 15, 30 and 60 minutes. The reaction was stopped by the addition of 5 volumes of cold acetonitrile with IS (200 nM caffeine and 100 nM tolbutamide). Samples were centrifuged at 3, 220 g for 40 minutes. Aliquot of 100 μL of the supernatant was mixed with 100 μL of ultra-pure H2O and then used for LC-MS/MS analysis.
Data Analysis: All calculations were carried out using Microsoft Excel. Peak areas were determined from extracted ion chromatograms. The slope value, k, was determined by linear regression of the natural logarithm of the remaining percentage of the parent drug vs. incubation time curve.
The in vitro half-life (in vitro t1/2) was determined from the slope value: in vitro t1/2=−([…]/k)
Conversion of the in vitro t1/2 (min) into the in vitro intrinsic clearance (in vitro CLint, in μL/min/mg protein) was done using the following equation (mean of duplicate determinations):
The calculations of Scaled-up CLint (mL/min/kg), Predicted CLH (mL/min/kg) and EH were done using the following equation: Scaled-up CLint=(0.693/t1/2)×(1/(microsomal protein concentration(0.5 mg/mL)))×Scaling Factors; Predicted CLH=(QH×Scaled-up CLint×fub)/(QH+Scaled-up CLint×fub); EH=Predicted CLH/QH • where QH is the hepatic blood flow (mL/min/kg) (Table 7), • fub is the fraction of unbound drug in plasma which is assumed to be 1. […]

Row | Structure (SMILES) | Papp A→B at 2 h, 1 μM [1] | Papp B→A at 2 h, 1 μM [1] | CLint scaled at 1 μM [2]
1 | Cn1nccc1C(=O)Nc1ccc2nc(-c3ccccc3C(F)(F)F)[nH]c2c1 [A, 1-methyl-N-(2-(2-(trifluoromethyl)phenyl)-1H-benzo[d]imidazol-6-yl)-1H-pyrazole-5-carboxamide] | > 10 ×10⁻⁶ cm/s | > 10 ×10⁻⁶ cm/s | < 10 mL/min/kg
2 | Cn1ncnc1C(=O)Nc1ccc2nc(-c3ccccc3C(F)(F)F)[nH]c2c1 [Compound H, 1-methyl-N-(2-(2-(trifluoromethyl)phenyl)-1H-benzo[d]imidazol-6-yl)-1H-1,2,4-triazole-5-carboxamide] | > 10 ×10⁻⁶ cm/s | > 10 ×10⁻⁶ cm/s | < 10 mL/min/kg
